The text below walks through data of patent publication US11434242B2, “Dopamine-b-hydroxylase inhibitors” (BIAL-PORTELA & Cª, S.A., priority 2017, dated 2022).

The target in the experiment is T1, Dopamine beta hydroxylase (Rattus norvegicus, UniProt Q05754).
T1 construct: Samples were constituted by the right and left adrenals of each animal; from tissue; host or cells: Wistar rat adrenal glands (homogenate)
T1 sequence (Q05754 1-620): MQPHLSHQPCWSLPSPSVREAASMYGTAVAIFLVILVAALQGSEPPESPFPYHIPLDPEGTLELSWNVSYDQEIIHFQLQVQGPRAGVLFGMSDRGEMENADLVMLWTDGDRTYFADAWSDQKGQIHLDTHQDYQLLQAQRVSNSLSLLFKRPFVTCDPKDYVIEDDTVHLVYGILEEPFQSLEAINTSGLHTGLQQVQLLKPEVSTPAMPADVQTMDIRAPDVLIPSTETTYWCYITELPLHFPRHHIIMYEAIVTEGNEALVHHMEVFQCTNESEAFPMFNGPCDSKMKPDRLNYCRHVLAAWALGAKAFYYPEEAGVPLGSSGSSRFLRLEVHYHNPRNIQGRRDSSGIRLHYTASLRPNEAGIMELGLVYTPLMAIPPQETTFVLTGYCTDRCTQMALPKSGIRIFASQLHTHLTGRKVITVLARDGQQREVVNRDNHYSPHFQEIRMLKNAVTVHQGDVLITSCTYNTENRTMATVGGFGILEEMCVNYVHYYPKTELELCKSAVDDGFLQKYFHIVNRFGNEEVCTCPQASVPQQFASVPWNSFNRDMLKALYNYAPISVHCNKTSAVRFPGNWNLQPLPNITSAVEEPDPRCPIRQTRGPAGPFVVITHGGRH
The experiment in a line: DβH activity in rat adrenal gland homogenates after oral administration. It counts as in vivo. The note with it: 10 mg/kg oral; for DβH activity in ADR (% Control): rat adrenal gland homogenates, maximal within 6 h post-dose, mean±SD of 4 rats; for DβH inhibition in peripheral tissues such as ADR: rat. The method, then: Dopamine beta hydroxylase activity in rat adrenal gland homogenates was measured by the method of Nagatsu and Udenfriend (Nagatsu, T. and Udenfriend, S. “Photometric assay of dopamine-μ-hydroxylase activity in human blood.” Clin. Chem. 18(9) 980-983, 1972) with minor modifications. Catalase, N-ethylmaleimide, tyramine, disodium fumarate, pargyline, sodium acetate, ascorbic acid, copper sulfate and octopamine were obtained from Sigma Chemical Co., St. Louis, Mo. 63178. Test compounds were prepared in kleptose 40% at a concentration of 0.75, 2.5 or 7.5 mg/mL to be administered at a dose of 10 mg/kg. Compounds and vehicle (kleptose 40%) were administered to wistar rats and adrenals were collected 0.5 h, 1 h, 2 h, 4 h, 6 h, 8 h, 15 h and 24 h after administration. Samples were constituted by the right and left adrenals of each animal. Adrenals were stored in 200 μL of 50 mM Tris pH 7.4 at −30° C., from date of collection. The samples were homogenized and homogenates were then quantified for protein. Protein concentration was adjusted to 1.6 mg/ml. The various reagents used to make up the incubation buffer were premixed and consisted of the following components: sodium acetate buffer (1 M, pH 5.0, 6.0 mL), sodium fumarate (0.2 M, 1.5 mL), ascorbic acid (0.2 M, 1.5 mL, freshly prepared), pargyline (20 mM, freshly prepared, 1.5 mL), N-ethylmaleimide (0.2 M, 1.5 mL), catalase (55 000 U/ml, 3 mL), copper sulfate (90 μM, 1.67 mL) and ultrapure water (1.33 mL). The standard incubation mixture (total volume, 500 μL) contained: 350 μL of incubation buffer; 125 μL of protein sample (or buffer for blank reaction or standard curve). The reaction mixture was placed in water bath with shaking at 37° C. and pre-incubated for 10 minutes. Tyramine (0.4 M, 25 μL) was added and incubation proceeded for 45 minutes. The reaction contents were exposed to air. A sample of enzyme preparation (with 125 μL of protein sample) that had been added perchloric acid 2 M at the end of the pre-incubation period was used as blank. A blank for each of the tested compounds was used. For octopamine standard curve, perchloric acid 2 M was replaced by increasing concentrations of octopamine prepared in perchloric acid 2 M (0.5, 1, 2.5, 5, 7.5, 10 μg/mL, final concentration). The incubation was stopped by adding 50 μL of 2 M molar perchloric acid, and the mixture was centrifuged at 16000 g for 3 min. The supernatant fluid (500 μL) was transferred to a column (SPE cartridge ISOLUTE SCX-3, 100 mg) and centrifuged at 150 g for 2 min. The column was washed two more times with 0.5 ml of ultrapure water by centrifuging at 150 g for 2 min. The adsorbed octopamine was eluted twice with 250 μL of 4 M ammonium hydroxide by centrifuging at 150 g for 2 min. Octopamine in the eluate was then converted to p-hydroxybenzaldehyde by adding 100 μL of sodium periodate (2%) and incubating for 6 min. Excess periodate was than reduced by adding 100 μl of sodium metabisulfite (10%). Absorbance was measured at […] in a 96 well plate by use of a SpectraMAX plus 384 (Molecular Devices) with software SOFTmax® PRO Software 5.3 spectrophotometer. Absorbance was linear with octopamine concentration from 0.5 to 10 μg/mL. Dopamine beta hydroxylase activity is determined as nmol of octopamine formed/mg of protein/hour and effect of compounds is presented as % of control.

Each structure is given as a SMILES string. Where a name gives a salt, the structure may show the parent alone.

Consider `Cn1c(CC(=O)O)c2n(c1=S)C[C@@]1(c3c(F)ccc(Cl)c3F)C[C@@H]21` [Example 231, 2-((5aS,6aR)-5a-(3-chloro-2,6-difluorophenyl)-2-methyl-3-thioxo-2,3,5,5a,6,6a-hexahydrocyclopropa[3,4]pyrrolo[1,2-c]imidazol-1-yl)acetic Acid], for which the “DβH activity in ADR (% Control)” value is on record as 43 ± 9 % Control and the “DβH inhibition in peripheral tissues such as ADR” value (“DβH inhibition” for short) was “inhibit DβH”.

For the compound `Fc1ccc(Br)c(F)c1[C@@H]1Cc2c(CCN3CCOCC3)[nH]c(=S)n2C1` [Example 195, (S)-6-(3-bromo-2,6-difluorophenyl)-1-(2-morpholinoethyl)-2,5,6,7-tetrahydro-3H-pyrrolo[1,2-c]imidazole-3-thione], the “DβH activity in ADR (% Control)” value came out at 21 ± 9 % Control and the “DβH inhibition” value is recorded as “inhibit DβH”.

Regarding `Cl.Cn1c(CCN[C@@H]2CCOC2)c2n(c1=S)C[C@H](c1c(F)ccc(Br)c1F)C2` [Example 256, (S)-6-(3-bromo-2,6-difluorophenyl)-2-methyl-1-(2-(((R)-tetrahydrofuran-3-yl)amino)ethyl)-2,5,6,7-tetrahydro-3H-pyrrolo[1,2-c]imidazole-3-thione hydrochloride], the “DβH activity in ADR (% Control)” value is 44 ± 22 % Control and the “DβH inhibition” value is listed as “inhibit DβH”.

Regarding `Fc1cc(F)c(F)c([C@H]2Cc3c(CCCN4CCCC4)[nH]c(=S)n3C2)c1F` [Example 219, (R)-1-(3-(pyrrolidin-1-yl)propyl)-6-(2,3,5,6-tetrafluorophenyl)-2,5,6,7-tetrahydro-3H-pyrrolo[1,2-c]imidazole-3-thione hydrochloride], the “DβH activity in ADR (% Control)” value worked out at 43 ± 16 % Control and the “DβH inhibition” value is “inhibit DβH”.

Take `Cl.Fc1ccc(Cl)cc1[C@]12C[C@H]1c1c(CCN3CCOCC3)[nH]c(=S)n1C2` [Example 174, (5aS,6aR)-5a-(5-chloro-2-fluorophenyl)-1-(2-morpholinoethyl)-5,5a,6,6a-tetrahydrocyclopropa[3,4]pyrrolo[1,2-c]imidazole-3(2H)-thione hydrochloride]: the “DβH activity in ADR (% Control)” value amounted to 39 ± 18 % Control and the “DβH inhibition” value is “inhibit DβH”.

As for `CN(C(=O)Cc1c2n(c(=S)n1C)C[C@@]1(c3c(F)ccc(Cl)c3F)C[C@@H]21)C1COC1` [Example 403, 2-((5aS,6aR)-5a-(3-chloro-2,6-difluorophenyl)-2-methyl-3-thioxo-2,3,5,5a,6,6a-hexahydrocyclopropa[3,4]pyrrolo[1,2-c]imidazol-1-yl)-N-methyl-N-(oxetan-3-yl)acetamide], the “DβH activity in ADR (% Control)” value is recorded as 0 ± 0 % Control and the “DβH inhibition” value is given as “inhibit DβH”.

For `F.Fc1ccc(Br)cc1[C@]12C[C@H]1c1c(CCN3CCOCC3)[nH]c(=S)n1C2` [Example 191, (5aS,6aR)-5a-(5-bromo-2-fluorophenyl)-1-(2-morpholinoethyl)-5,5a,6,6a-tetrahydrocyclopropa[3,4]pyrrolo[1,2-c]imidazole-3(2H)-thione hydrofluoride], the “DβH activity in ADR (% Control)” value was found to be 45 ± 8 % Control and the “DβH inhibition” value is listed as “inhibit DβH”.
